Test results as given in patent US9321760B2 (Merck Patent GmbH, priority 2011, dated 2016).
pIC50: −log10 of the molar value.

Target: P70S6K (T412E mutant) (Homo sapiens (Human), UniProt P23443, T412E)
Assay: P70S6K enzyme assay
Type: biochemical
Settings: 3 nM P70S6K T412E mutant, 24 μM ATP, 1 μM FITC-AHA-AKRRRLSSLRA-OH substrate peptide, 90 min at 25° C.
Procedure: The IC50 values reported for the compounds in the Experimental section were derived from the following protocol for the p70S6K enzyme assay.
P70S6K inhibitor compounds were diluted and plated in 96 well plates. A reaction mixture including the following components was then added to the compound plate to initiate the enzyme reaction; P70S6K (3 nM, T412E mutant, Millipore) was mixed with 24 μM ATP in an assay buffer containing 100 mM Hepes (pH 7.5), 5 mM MgCl2, 1 mM DTT, 0.015% Brij and 1 μM of the substrate peptide FITC-AHA-AKRRRLSSLRA-OH (derived from the S6 ribosomal protein sequence, FITC=fluorescein isothiocyanate, AHA=6-aminohexanoic acid). The reaction was incubated for 90 min at 25° C., before the addition of 10 mM EDTA to stop the reaction. The proportion of substrate and product (phosphorylated) peptide was analysed on a Caliper Life Sciences Lab Chip 3000, using a pressure of −1.4 psi, and upstream and downstream voltages of −3000 and −700 respectively. Product peaks were resolved before substrate peaks on the resulting chromatograms.

P70S6K (T412E mutant), sequence (P23443 whole entry T412E): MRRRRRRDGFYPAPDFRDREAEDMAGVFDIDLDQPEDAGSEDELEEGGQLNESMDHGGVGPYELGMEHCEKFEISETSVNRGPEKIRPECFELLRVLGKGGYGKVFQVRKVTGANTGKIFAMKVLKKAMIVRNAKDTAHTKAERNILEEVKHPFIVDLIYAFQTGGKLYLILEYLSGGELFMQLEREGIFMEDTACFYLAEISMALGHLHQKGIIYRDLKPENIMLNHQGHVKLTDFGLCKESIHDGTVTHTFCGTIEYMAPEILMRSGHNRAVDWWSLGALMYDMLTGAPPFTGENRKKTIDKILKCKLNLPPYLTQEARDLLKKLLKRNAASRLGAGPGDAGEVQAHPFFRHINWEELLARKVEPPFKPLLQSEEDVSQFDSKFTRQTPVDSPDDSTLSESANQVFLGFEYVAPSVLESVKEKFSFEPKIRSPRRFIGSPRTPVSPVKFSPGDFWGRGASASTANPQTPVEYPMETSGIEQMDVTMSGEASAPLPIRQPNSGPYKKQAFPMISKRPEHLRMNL

Structure (SMILES) | pIC50
CS(=O)(=O)c1ccc([C@H](CN2CCC2)N2CCN(c3ncnc(N)c3-c3cn[nH]c3)CC2)cc1 [Example 93, 6-{4-[(R)-2-Azetidin-1-yl-1-(4-methanesulfonyl-phenyl)-ethyl]-piperazin-1-yl}-5-(1H-pyrazol-4-yl)-pyrimidin-4-ylamine] | 5.37
NCC(c1ccc(C(F)(F)F)cc1)N1CCN(c2ncnc(N)c2F)CC1 (centres unmarked) [Example 74, 6-{4-[2-Amino-1-(4-trifluoromethyl-phenyl)-ethyl]-piperazin-1-yl}-5-fluoro-pyrimidin-4-ylamine] | 6.43
C[C@@H](c1ccccc1)[C@H](CN)N1CCN(c2ncnc(N)c2-c2ccc(F)cc2)CC1 [Example 172, 6-[4-((1R,2S)-1-Aminomethyl-2-phenyl-propyl)-piperazin-1-yl]-5-(4-fluoro-phenyl)-pyrimidin-4-ylamine] | 6.55
C[C@H](NC(=O)C1(N)CCN(c2ncnc(N)c2Cl)CC1)c1ccc(Cl)cc1 [Example 222, 4-Amino-1-(6-amino-5-chloro-pyrimidin-4-yl)-piperidine-4-carboxylic acid [(S)-1-(4-chloro-phenyl)-ethyl]-amide] | 6.21
Nc1ncnc(N2CCC(Cc3ccc(C(F)(F)F)cc3)CC2)c1Br [Example 47, 5-Bromo-6{4-(4-trifluoromethylbenzyl)-piperidin-1-yl}pyrimidin-4-amine] | 6.02
COc1ccc([C@H](CN2CCC2)N2CCN(c3ncnc(N)c3-c3ccc(F)cc3)CC2)cc1F [Example 104, 6-{4-[(R)-2-Azetidin-1-yl-1-(3-fluoro-4-methoxy-phenyl)-ethyl]-piperazin-1-yl}-5-(4-fluoro-phenyl)-pyrimidin-4-ylamine] | 6.04
Nc1ncnc(N2CCN(C(CN3CCC3)c3cccc(C(F)(F)F)c3F)CC2)c1-c1cn[nH]c1 (centres unmarked) [Example 99, 6-{4-[2-Azetidin-1-yl-1-(2-fluoro-3-trifluoromethyl-phenyl)-ethyl]-piperazin-1-yl}-5-(1H-pyrazol-4-yl)-pyrimidin-4-ylamine] | 6.17
Nc1ncnc(N2CCC(N)(C(=O)N[C@@H](CCO)c3ccc(C(F)(F)F)cc3)CC2)c1Cl [Example 223, 4-Amino-1-(6-amino-5-chloro-pyrimidin-4-yl)-piperidine-4-carboxylic acid [(S)-3-hydroxy-1-(4-trifluoromethyl-phenyl)-propyl]-amide] | 4.66
COc1ccc([C@H](CCO)NC(=O)C2(N)CCN(c3ncnc(N)c3Cl)CC2)cc1 [Example 238, 4-Amino-1-(6-amino-5-chloro-pyrimidin-4-yl)-piperidine-4-carboxylic acid [(S)-3-hydroxy-1-(4-methoxy-phenyl)-propyl]-amide] | 6.42
Nc1ncnc(N2CCN(C(CN3CCC3)c3cccc(F)c3F)CC2)c1-c1cn[nH]c1 (centres unmarked) [Example 124, 6-{4-[2-Azetidin-1-yl-1-(2,3-difluoro-phenyl)-ethyl]-piperazin-1-yl}-5-(1H-pyrazol-4-yl)-pyrimidin-4-ylamine] | 5.47
N#Cc1ccc([C@@H](CN2CCC2)N2CCN(c3ncnc(N)c3-c3cn[nH]c3)CC2)cc1 [Example 88, 4-((S)-1-{4-[6-Amino-5-(1H-pyrazol-4-yl)-pyrimidin-4-yl]-piperazin-1-yl}-2-azetidin-1-yl-ethyl)-benzonitrile] | 5.17
N#Cc1c(N)ncnc1N1CCC(N)(C(=O)N[C@@H](CCO)c2ccc(Cl)cc2)CC1 [Example 242, 4-Amino-1-(6-amino-5-cyano-pyrimidin-4-yl)-piperidine-4-carboxylic acid [(S)-1-(4-chloro-phenyl)-3-hydroxy-propyl]-amide] | 7.01
CCOC(=O)Cn1cc(-c2c(N)ncnc2N2CCN(C(CN3CCC3)c3ccc4c(c3)CCCC4)CC2)cn1 (centres unmarked) [Example 119, [4-(4-Amino-6-{4-[2-azetidin-1-yl-1-(5,6,7,8-tetrahydro-naphthalen-2-yl)-ethyl]-piperazin-1-yl}-pyrimidin-5-yl)-pyrazol-1-yl]-acetic acid ethyl ester] | 4.66
N#CC(c1cccc(C(F)(F)F)c1)N1CCN(c2ncnc(N)c2Br)CC1 (centres unmarked) [Example 166, [4-(6-Amino-5-bromo-pyrimidin-4-yl)-piperazin-1-yl]-(3-trifluoromethyl-phenyl)-acetonitrile] | 5.21
Nc1ncnc(N2CCN(C(CN3CCCCC3)c3ccc(C(F)(F)F)cc3)CC2)c1Br (centres unmarked) [Example 11, 5-bromo-6-(4-(2-(piperidin-1-yl)-1-(4-(trifluoromethyl)phenyl)ethyl)piperazin-1-yl)pyrimidin-4-amine] | 6.55
Cc1ccc([C@H](CCO)NC(=O)C2(N)CCN(c3ncnc(N)c3C(N)=O)CC2)cc1 [Example 232, 4-Amino-6-[4-amino-4-((S)-3-hydroxy-1-p-tolyl-propylcarbamoyl)-piperidin-1-yl]-pyrimidine-5-carboxylic acid amide] | 4.64

Stronger by pIC50, values ahead:

pIC50 | Structure (SMILES)
7.74 | CN(C)CCNC(=O)C(c1ccc(C(F)(F)F)cc1)N1CCN(c2ncnc(N)c2-c2ccc(F)cc2)CC1 (centres unmarked) [Example 18, 2-(4-(6-amino-5-(4-fluorophenyl)pyrimidin-4-yl)piperazin-1-yl)-N-(2-(dimethylamino)ethyl)-2-(4-(trifluoromethyl)phenyl)acetamide]
7.92 | COC(=O)c1ccc(-c2c(N)ncnc2N2CCN(C(CN(C)C)c3ccc(C(F)(F)F)cc3)CC2)cc1 (centres unmarked) [Example 23, Methyl 4-(4-amino-6-(4-(2-(dimethylamino)-1-(4-(trifluoromethyl)phenyl)ethyl)piperazin-1-yl)pyrimidin-5-yl)benzoate]
8.04 | Nc1ncnc(N2CCC(N)(CNC(=O)c3ccc(F)cc3F)C2)c1-c1ccc(C(F)(F)F)cc1 (centres unmarked) [Example 202, N-{3-Amino-1-[6-amino-5-(4-trifluoromethyl-phenyl)-pyrimidin-4-yl]-pyrrolidin-3-ylmethyl}-2,4-difluoro-benzamide]
8.33 | NC[C@@H](c1ccc(C(F)(F)F)cc1)C1CCN(c2ncnc(N)c2-c2cn[nH]c2)CC1 (single isomer, unassigned) [Example 57]
8.70 | CN(C)CCOC(c1ccc(F)cc1)C1CCN(c2ncnc(N)c2-c2ccc(F)cc2)CC1 (centres unmarked) [Example 147, 5-(4-fluorophenyl)6-(4-((4-fluorophenyl)(2-(dimethlyamino)ethoxy)methyl)piperidin-1-yl)pyrimidin-4-amine]
7.85 | NCC(c1ccc(F)c(C(F)(F)F)c1)N1CCN(c2ncnc(N)c2-c2ccc(F)cc2)CC1 (centres unmarked) [Example 155, 6-{4-[2-Amino-1-(4-fluoro-3-trifluoromethyl-phenyl)-ethyl]-piperazin-1-yl}-5-(4-fluoro-phenyl)-pyrimidin-4-ylamine]
7.39 | NCC(c1ccc(C(F)(F)F)cc1)C1CCN(c2ncnc(N)c2Br)CC1 (centres unmarked) [Example 51, 6-{4-[2-Amino-1-(4-trifluoromethyl-phenyl)-ethyl]-piperidin-1-yl}-5-bromo-pyrimidin-4-ylamine]
8.36 | NCC(c1ccc(F)cc1)N1CCN(c2ncnc(N)c2-c2ccc(F)cc2)CC1 (centres unmarked) [Example 159, 6-{4-[2-Amino-1-(4-fluoro-phenyl)-ethyl]-piperazin-1-yl}-5-(4-fluoro-phenyl)-pyrimidin-4-ylamine]
7.54 | Nc1ncnc(N2CCN(C(CN3CCCC3)c3ccc(F)cc3)CC2)c1-c1ccc(F)cc1 (stereo in doubt) [Example 82, (R)5-(4-Fluorophenyl)-6{4-[1-(4-fluorophenyl)-2-pyrrolidin-1-yl-ethyl]-piperazin-1-yl}-pyrimidin-4-ylamine]
8.31 | CN(C)CC(c1ccc(C(F)(F)F)cc1)N1CCN(c2ncnc(N)c2-c2ccc(F)cc2)CC1 (centres unmarked) [Example 15, 6-(4-(2-(dimethylamino)-1-(4-(trifluoromethyl)phenyl)ethyl)piperazin-1-yl)-5-(4-fluorophenyl)pyrimidin-4-amine]
7.60 | Nc1ncnc(N2CCC(N)(CNC(=O)c3ccc(F)cc3F)C2)c1-c1ccncc1 (centres unmarked) [Example 205, N-[3-Amino-1-(6-amino-5-pyridin-4-yl-pyrimidin-4-yl)-pyrrolidin-3-ylmethyl]-2,4-difluoro-benzamide]
7.09 | Nc1ncnc(N2CCN(C(CN3CCCC3)c3cccc(C(F)(F)F)c3)CC2)c1-c1ccc(F)cc1 (centres unmarked) [Example 66, 5-(4-Fluorophenyl)-6{4-[1-(3-trifluoromethyl-phenyl)-2-pyrrolidin-1-yl-ethyl]-piperazin-1-yl}-pyrimidin-4-ylamine]
8.59 | NC[C@@H](c1ccc(Cl)nc1)N1CCN(c2ncnc(N)c2-c2ccc(F)cc2)CC1 [Example 175, 6-{4-[(R)-2-Amino-1-(6-chloro-pyridin-3-yl)-ethyl]-piperazin-1-yl}-5-(4-fluoro-phenyl)-pyrimidin-4-ylamine]
8.01 | NCC(c1ccc(C(F)(F)F)nc1)N1CCN(c2ncnc(N)c2-c2ccc(F)cc2)CC1 (centres unmarked) [Example 194, 6-{4-[2-Amino-1-(6-trifluoromethyl-pyridin-3-yl)-ethyl]-piperazin-1-yl}-5-(4-fluoro-phenyl)-pyrimidin-4-ylamine]
7.22 | CS(=O)(=O)c1ccc(C(CN)N2CCN(c3ncnc(N)c3-c3cn[nH]c3)CC2)cc1 (centres unmarked) [Example 185, 6-(4-(2-amino-1-(4-(methylsulfonyl)phenyl)ethyl)piperazin-1-yl)-5-(1H-pyrazol-4-yl)pyrimidin-4-amine]
7.40 | COc1c(N)ncnc1N1CCN(C(CN)c2ccc(C(F)(F)F)cc2)CC1 (centres unmarked) [Example 31, 6-(4-(2-amino-1-(4-(trifluoromethyl)phenyl)ethyl)piperazin-1-yl)-5-methoxypyrimidin-4-amine]
